Assay results: PubChem BioAssay AID790 (SRMLSC, 2007)
pIC50: −log10 of the molar value. The source made the active and inactive calls. How the calls were made is not given here.

Experiments:
[1] = system: S. cerevisiae vps1Δ mutant growth inhibition; assay: vps1Δ single mutant yeast growth suppression – S. cerevisiae, background strain comparison, dose response (AID 790)
[2] = as above; conditions: S. cerevisiae vps1Δ mutant growth inhibition; measured here: background strain growth inhibition

For `CCn1c(-c2c[nH]c3ccccc23)n[nH]c1=S`, the IC50 [1] was > 10 µM (inactive) and the pIC50 [2] was < 5.00.

`Cc1nnc(-c2cccc(Br)c2)c2cn(-c3ccccc3Cl)nc12` gave a pIC50 [1] of 5.70 and a pIC50 [2] of 4.59.

With `Cc1cc(=O)oc2c(CN3CCCCC3)c(O)c(Cl)cc12` the IC50 [1] was > 10 µM (inactive) and the pIC50 [2] was < 5.00.

In the case of `CCCCSCCCNC(=O)Nc1cccc(OC)c1`, the IC50 [1] was > 10 µM (inactive) and the pIC50 [2] was < 5.00.

For `CC(C)OC(=O)CSc1nnc(-c2ccc(Cl)cc2)n1N`, the IC50 [1] was > 10 µM (inactive) and the pIC50 [2] was < 5.00.

For `CC(=O)c1ccc(N2CCN(C(=O)c3ccc(Br)cc3)CC2)c(F)c1`, the pIC50 [1] was 5.82 and the pIC50 [2] was 5.18.

For `CC(C)c1ccc(C2C3CSCC=C3C(C#N)=C(N)C2(C#N)C#N)cc1` (stereo unspecified), the IC50 [1] was 1.77 µM (inactive) and the pIC50 [2] was 6.07.

For `C=CCc1ccc(OCC(O)CN2CCC(Cc3ccccc3)CC2)c(OC)c1` (stereo unspecified), the IC50 [1] was 19.4 µM (inactive) and the pIC50 [2] was 4.72.

With `CCN(CC)c1nc2cc(OC)ccc2cc1C#N` the IC50 [1] was > 10 µM (inactive) and the pIC50 [2] was < 5.00.

Work on `CCc1ccc(C(=O)/C=C/c2ccc([N+](=O)[O-])o2)cc1` yielded a pIC50 [1] of 5.67 and a pIC50 [2] of 4.68.

With `Cc1ccc2nc(C)cc(OCC(=O)O)c2c1` the IC50 [1] was > 10 µM (inactive) and the pIC50 [2] was < 5.00.

For `CC1CN(CC(O)COc2ccc(C(C)C)cc2)CC(C)O1` (stereo unspecified), the IC50 [1] was > 10 µM (inactive) and the pIC50 [2] was < 5.00.

For `CCN(CC)CCn1nc(C)nc1-c1ccccc1O`, the IC50 [1] was > 10 µM (inactive) and the pIC50 [2] was < 5.00.

For `Cc1ccc(OCC(O)CN2CCN(Cc3ccc4c(c3)OCO4)CC2)c(C)c1` (stereo unspecified), the IC50 [1] was > 10 µM (inactive) and the pIC50 [2] was < 5.00.

With `COc1ccc(CN(C(=O)Cc2cccs2)C(C(=O)NC2CCCC2)c2ccncc2)cc1` (stereo unspecified) the IC50 [1] was > 10 µM (inactive) and the pIC50 [2] was < 5.00.

For `O=C1CN(C(=O)CSc2nnc(-c3ccccc3)n2Cc2ccc3c(c2)OCO3)c2ccccc2N1`, the IC50 [1] was > 10 µM (inactive) and the pIC50 [2] was < 5.00.

With `O=C(N/N=C/c1ccc(OC(=O)c2ccccc2)cc1)c1ccc(CN2CCOCC2)cc1` the IC50 [1] was > 10 µM (inactive) and the pIC50 [2] was < 5.00.

In the case of `Cc1ccc(S(=O)(=O)N2CC3CC(C2)c2cccc(=O)n2C3)cc1` (stereo unspecified), the IC50 [1] was > 10 µM (inactive) and the pIC50 [2] was < 5.00.

For `CCc1n[nH]c2c1/C(=N\O)CC(C)(C)C2`, the IC50 [1] was > 10 µM (inactive) and the pIC50 [2] was < 5.00.

For `COc1cccc(-c2cc(C(=O)N3CCN(C(c4ccccc4)c4ccccc4)CC3)no2)c1`, the IC50 [1] was > 10 µM (inactive) and the pIC50 [2] was < 5.00.

For `CC(C)Cc1[nH]c(=O)c(C#N)c2c1CCC2`, the IC50 [1] was > 10 µM (inactive) and the pIC50 [2] was < 5.00.

For `CCn1c(SCC(=O)N2CCCc3ccccc32)nnc1-c1ccco1`, the IC50 [1] was > 10 µM (inactive) and the pIC50 [2] was < 5.00.

With `COc1ccc(N2CCN(C(=O)CCNS(=O)(=O)c3ccc(Br)s3)CC2)cc1` the IC50 [1] was > 10 µM (inactive) and the pIC50 [2] was < 5.00.

For `Nc1cc(N)c(OCC(F)(F)F)cc1OCC(F)(F)F`, the IC50 [1] was > 10 µM (inactive) and the pIC50 [2] was < 5.00.

For `COc1ccc2oc(=O)c(-c3nnc(NCc4ccco4)s3)cc2c1`, the IC50 [1] was > 10 µM (inactive) and the pIC50 [2] was < 5.00.

In the case of `Nc1ccc(Oc2ccc3nc(-c4ccccc4)c(-c4ccccc4)nc3c2)cc1`, the IC50 [1] was 2.91 µM (inactive) and the pIC50 [2] was 5.92.

With `COCCCn1c2nc3ccccc3nc2c2c(=O)n(-c3ccccc3OC)cnc21` the IC50 [1] was > 10 µM (inactive) and the pIC50 [2] was < 5.00.

With `CCC(OC(=O)C(NC(=O)c1ccccc1)c1ccccc1)C(=O)Nc1cc(C)on1` (stereo unspecified) the IC50 [1] was > 10 µM (inactive) and the pIC50 [2] was < 5.00.

For `CC1CCCCC1NC(=O)CSc1nnnn1-c1ccccc1` (stereo unspecified), the IC50 [1] was > 10 µM (inactive) and the pIC50 [2] was < 5.00.

With `CCCCCOc1ccc(Cl)cc1CN1CCOCC1` the IC50 [1] was > 10 µM (inactive) and the pIC50 [2] was < 5.00.

In the case of `COc1ccc(C2CC(=O)C3=C(C2)NC(C)=C(C(=O)Nc2ccccc2C)C3c2coc3ccc(C)cc3c2=O)cc1OC` (stereo unspecified), the IC50 [1] was > 10 µM (inactive) and the pIC50 [2] was < 5.00.

With `O=C(C1CCN(S(=O)(=O)c2cccs2)CC1)N1CCCCCC1` the IC50 [1] was > 10 µM (inactive) and the pIC50 [2] was < 5.00.

With `O=C1c2cccc3c([N+](=O)[O-])ccc(c23)C(=O)N1c1ccc(Cl)cn1` the IC50 [1] was 8.74 µM (inactive) and the pIC50 [2] was 5.22.

In the case of `COc1ccccc1N1CCN(Cc2ccccc2F)CC1`, the IC50 [1] was > 10 µM (inactive) and the pIC50 [2] was < 5.00.

In the case of `COc1ccc(-c2nnc(CSc3nc4ccccc4c(=O)n3C)o2)cc1OC`, the IC50 [1] was > 10 µM (inactive) and the pIC50 [2] was < 5.00.

In the case of `COc1ccc2nc(NCCCNC(=O)c3cc(OC)c(OC)c(OC)c3)c(C#N)cc2c1`, the IC50 [1] was > 10 µM (inactive) and the pIC50 [2] was < 5.00.

With `COc1ccc(-c2cc(N)n(S(=O)(=O)c3c(F)c(F)c(F)c(F)c3F)n2)cc1OC` the IC50 [1] was 2.29 µM (inactive) and the pIC50 [2] was 5.97.

With `Cc1cc(NCCCN2CCOCC2)n2ncc(-c3ccc(Cl)cc3)c2n1` the IC50 [1] was > 10 µM (inactive) and the pIC50 [2] was < 5.00.

For `CSc1ncccc1C(=O)OCC(=O)N1CCOCC1`, the IC50 [1] was > 10 µM (inactive) and the pIC50 [2] was < 5.00.

In the case of `Cc1ccc(SC(C)C(=O)Nc2ncn[nH]2)cc1` (stereo unspecified), the IC50 [1] was > 10 µM (inactive) and the pIC50 [2] was < 5.00.

With `Cc1ccc(/C=N/n2cnc3sc(-c4ccccc4)cc3c2=O)o1` the IC50 [1] was > 10 µM (inactive) and the pIC50 [2] was < 5.00.

With `CCN(CC)c1ccc(CN2CC=C(c3ccc(F)cc3)CC2)cc1` the IC50 [1] was > 10 µM (inactive) and the pIC50 [2] was 4.59.

For `Cc1cc(Cl)cc(C)c1OCCCCN1CCOCC1`, the IC50 [1] was > 10 µM (inactive) and the pIC50 [2] was < 5.00.

For `Cc1c(Cc2ccccc2)c(=O)oc2c(C)c(OCc3nn[nH]n3)ccc12`, the IC50 [1] was > 10 µM (inactive) and the pIC50 [2] was < 5.00.

In the case of `COC(=O)c1ccc(CSc2nnc(NC(C)C)s2)cc1`, the IC50 [1] was > 10 µM (inactive) and the pIC50 [2] was < 5.00.

For `CC(=O)Nc1ccccc1NS(=O)(=O)c1ccc(Cl)cc1`, the IC50 [1] was > 10 µM (inactive) and the pIC50 [2] was < 5.00.

For `N#CC1=C2SCC(O)(c3ccccc3)N2C(=O)CC1c1ccccc1` (stereo unspecified), the IC50 [1] was > 10 µM (inactive) and the pIC50 [2] was < 5.00.

With `O=C(c1ccco1)N1CCN(c2ncnc3c2[nH]c2ccccc23)CC1` the IC50 [1] was > 10 µM (inactive) and the pIC50 [2] was < 5.00.

In the case of `O=C(NCc1ccc2c(c1)OCO2)C1CCCN1C(=O)Nc1ccccc1` (stereo unspecified), the IC50 [1] was > 10 µM (inactive) and the pIC50 [2] was < 5.00.

For `Cn1c(=O)c2nc(NCc3ccccc3)cnc2n(C)c1=O`, the IC50 [1] was > 10 µM (inactive) and the pIC50 [2] was < 5.00.

For `CCOc1ccc(NC(=O)C/C(N)=N/O)cc1`, the IC50 [1] was > 10 µM (inactive) and the pIC50 [2] was < 5.00.

In the case of `O=C(Nc1nnc(-c2ccccc2)o1)c1ccc(Cl)cc1`, the pIC50 [1] was 6.38 and the pIC50 [2] was 6.19.

For `O=C(NCCSCc1ccc(Cl)cc1Cl)c1ccc(CN2CCOCC2)cc1`, the IC50 [1] was > 10 µM (inactive) and the pIC50 [2] was < 5.00.

In the case of `Cc1ccc2cc(CN(CCO)Cc3nnnn3Cc3ccc(F)cc3)c(=O)[nH]c2c1`, the IC50 [1] was > 10 µM (inactive) and the pIC50 [2] was < 5.00.

In the case of `Cc1sc(NC(=O)c2ccco2)c(C(c2cccnc2)N2CCC(C)CC2)c1C` (stereo unspecified), the IC50 [1] was > 10 µM (inactive) and the pIC50 [2] was 5.24.

In the case of `O=C(NCc1ccco1)C(c1cccs1)N(C(=O)Cc1cccs1)c1ccccc1` (stereo unspecified), the IC50 [1] was > 10 µM (inactive) and the pIC50 [2] was < 5.00.

For `CCCCC1(CCCC)C(=O)NC(=Nc2cccc(C)c2)NC1=O`, the IC50 [1] was > 10 µM (inactive) and the pIC50 [2] was < 5.00.

With `CCOC(=O)c1ccc(NC(=O)c2cn(-c3ccccc3)nc2-c2ccncc2)cc1` the IC50 [1] was > 10 µM (inactive) and the pIC50 [2] was 4.94.

For `O=C(NCC(c1cccnc1)N1CCN(c2ccccc2)CC1)C1CCCCC1` (stereo unspecified), the IC50 [1] was > 10 µM (inactive) and the pIC50 [2] was < 5.00.

Compound `O=C1c2ccccc2C(=O)c2c1oc(C(F)(F)F)c2C(=O)c1ccccc1` has a pIC50 [1] of 5.88 and a pIC50 [2] of 5.66.

Compound `O=[N+]([O-])c1ccc(N/N=C/c2c[nH]c3ccccc23)c(S(=O)(=O)Nc2ccc(Cl)cc2)c1` has a pIC50 [1] of 5.61 and a pIC50 [2] of 5.60.

For `O=S(=O)(NCC(c1cccnc1)N1CCN(c2ccccc2)CC1)c1cccs1` (stereo unspecified), the pIC50 [1] was 4.69 and the pIC50 [2] was < 5.00.

For `COc1ccc(C2C3=C(CCCC3=O)Nc3nc(-c4cc(OC)c(OC)c(OC)c4)nn32)cc1OC` (stereo unspecified), the IC50 [1] was > 10 µM (inactive) and the pIC50 [2] was < 5.00.
